Source: patent publication US20100105688A1, “PHARMACEUTICAL COMPOSITIONS COMPRISING 3,5-DIAMINO-6-(2,3-DICHLOPHENYL)-1,2,4-TRIAZINE OR R(-)-2,4-DIAMINO-5-(2,3-DICHLOROPHENYL)-6-FLUOROMETHYL PYRIMIDINE AND AN NK1” (GLAXO GROUP LIMITED, priority 2007, published 2010)
Like-named read-outs stand apart in the source and are kept apart here. One block for each compound: values may come before it.

Assays:
rats = assay: FCA (Freunds Complete Adjuvant) model of inflammatory hypersensitivity to pain (weight bearing); format: in vivo, rat
Procedure: • Naïve weight bearing readings were taken. The hypersensitivity to pain was measured using the Rat incapacitance tester (Linton instruments). This instrument is serviced once a year and should be regularly calibrated • All rats then received an intraplantar injection of 100 ul of FCA (Freund's complete adjuvant) into the left hind paw. The FCA was sonicated for 15 minutes prior to use. • Approximately 23 hrs after administration of the FCA, pre-dose weight bearing readings were taken. All animals were then ranked and randomised for dosing according to their FCA window (predose difference in grams−naïve difference in grams). […] Celebrex 10 mg/kg p.o. (positive control) as appropriate according to ranking and randomisation. • Animals were assessed in the weight bearing apparatus 1 hour post dose. • The study was blind and randomised by FCA window using the Latin square method. • % reversals were calculated by using the naïve, pre-dose and post dose values as follows: % Reversal=[(Pre-dose−Post-dose)/(Pre-dose−Naïve)]×100 • Graphs and ED50 were calculated where appropriate using Prism4. • Statistical analysis was carried out using ANOVA followed by calculating the least square means using the statistical package Statistica 6.1 • From the dose response curves the ED20 was determined for the combination study • Naïve weight bearing readings were taken. The hypersensitivity to pain was measured using the Rat incapacitance tester (Linton instruments). This instrument is serviced once a year and should be regularly calibrated • All rats then received an intraplantar injection of 100 ul of FCA (Freund's complete adjuvant) into the left hind paw. The FCA was sonicated for 15 minutes prior to use. • Approximately 23 hrs after administration of the FCA, pre-dose weight bearing readings were taken. All animals were then ranked and randomised for dosing according to their FCA window (predose difference in grams−naïve difference in grams). […] See table 5 for details of the groups • Animals were assessed in the weight bearing apparatus 1 hour post dose. • The study was blind and randomised by FCA window using the Latin square method. • % reversals were calculated by using the naïve, pre-dose and post dose values as follows: % Reversal=[(Pre-dose−Post-dose)/(Pre-dose−Naïve)]×100 • Statistical analysis was carried out using ANOVA followed by calculating the least square means using the statistical package Statistica 6.1 • ED50 and ED20 values and graphs were calculated using prism5 • Naïve weight bearing readings were taken. The hypersensitivity to pain was measured using the Rat incapacitance tester (Linton instruments). This instrument is serviced once a year and should be regularly calibrated • All rats then received an intraplantar injection of 100 ul of FCA (Freund's complete adjuvant) into the left hind paw. The FCA was sonicated for 15 minutes prior to use. • Approximately 23 hrs after administration of the FCA, pre-dose weight bearing readings were taken. All animals were then ranked and randomised for dosing according to their FCA window (predose difference in grams—naïve difference in grams). Rats with FCA window less than 30 g were excluded from the study. • Animals were then dosed with the following in a fixed dose ratio of 1.25:1 according to ranking and randomisation. (Table 6) […] Graphs and ED50 were calculated where appropriate using Prism5 • Statistical analysis was carried out using ANOVA followed by calculating the least square means using the statistical package Statistica 6.1

Male CD rats = assay: Rat MEST model (seizure threshold, CC50); format: in vivo
Procedure: This work was conducted in compliance with the Home Office Guidance on the operation of the Animals (Scientific Procedures) Act 1986 and GlaxoSmithKline ethical standards. Male CD rats (100-145 g) were supplied by Charles River, UK. Animals were group housed (6 animal per cage) with free access to food (Standard rodent chow; Harlan, UK) and water under a 12 h light/dark cycle (lights on at 0700 h). A period of at least one week between arrival at GSK and the study was allowed in all cases.
Animals were administered a test compound at the appropriate dose, route and pre-treatment time and returned to their home cage. Testing occurred in a separate room from that used for housing. Testing involved determining the threshold for tonic hindlimb extensor seizures using a Hugo Sachs Electronik stimulator which delivers a constant current of 0.3 second duration, 50 Hz, sinewave form, fully adjustable between 1 and 300 mA. Stimuli were delivered via corneal electrodes (Stean T O, Atkins A R, Heidbreder C A, Quinn L P, Trail B K, Upton N. (2005) Br J. Pharmacol. 144(5):628-35). Seizure threshold was determined using the ‘up and down’ method of Kimball et al. (1957)(Kimball A W, Burnett W T Jr, Doherty D G. (1957) Radiat Res. 7(1):1-12). The first animal tested in each group was stimulated with a current that might be expected to be close to the threshold for induction of a seizure. If a tonic seizure was not induced, then next animal in the group received a stimulus 5 mA higher. If a tonic seizure was induced, then the next animal received a stimulus 5 mA lower. This is repeated for all animals within the control (vehicle) group. In the case of groups treated with a sodium channel blocker steps of 10 to 30 mA were used.
(§1) All doses were calculated as base. ENa9 and ENa13 were dosed via the subcutaneous (s.c.) route at 1 ml/kg in a 2% v/v DMSO/saline vehicle 30 minutes prior to test. ENa7 and ENa14 were dosed orally (p.o.) in a 1% w/v methylcellulose/water vehicle at 2 ml/kg, 60 minutes before test. Compound ENK6 was dosed with via the intraperitoneal (i.p.) route 60 minutes before the test or via the s.c. route 15 minutes before test. In both cases ENK6 was dissolved in saline.
Induction of seizure is measured as an all-or-nothing effect scored as either present (+) or absent (0) for each animal. The data for each treatment group were recorded as the number of +'s and 0's at each current level employed and this information was then used to calculate the CC50 value (current required for 50% of animals to show seizure behaviour)+standard error of the mean according to the method of Kimball et al. (1957). Drug effects were calculated as the % change in CC50. Significant differences between drug-treated animals and appropriate vehicle treated groups were assessed according to the methods of Litchfield and Wilcoxon (1949). The statistical significance of differences between sodium channel blocker alone or in combination with ENK6 was assessed using a Student's t test.

[1] = Blood and brain concentrations in satellite animals of the MEST study; format: in vivo, rat; conditions: satellite rats; for concentration at 15 min / concentration at 30 min: rat, sc; for change of blood or brain concentration of the sodium channel blocker in the presence of ENK6: ENK6 30 mg/kg i.p.
Procedure: Satellite animals (n=3/group) received the same drugs or combinations of drugs as the test groups, and were culled at the appropriate time after dosing. Blood and brain samples were taken for analysis of the drug concentrations in these compartments.
as §1

[2] = ENK6 10 mg/kg s.c. + ENa7 1 mg/kg p.o., n = 2-3
[3] = ENK6 10 mg/kg s.c. + ENa7 3 mg/kg p.o., n = 2-3
[4] = ENK6 30 mg/kg s.c. + ENa7 1 mg/kg p.o., n = 2
[5] = ENK6 30 mg/kg s.c. + ENa7 3 mg/kg p.o., n = 2
[6] = sodium channel blocker 1 mg/kg s.c. in the presence of ENK6 (30 mg/kg i.p.)
[7] = sodium channel blocker 3 mg/kg s.c. in the presence of ENK6 (30 mg/kg i.p.)
[8] = sodium channel blocker alone, 1 mg/kg s.c., 30 minutes prior to test
[9] = sodium channel blocker alone, 3 mg/kg s.c., 30 minutes prior to test
[10] = ENK6 30 mg/kg i.p. + ENa13 1 mg/kg s.c., n = 2
[11] = ENK6 30 mg/kg i.p. + ENa13 3 mg/kg s.c., n = 2

concentration at 15 min ([1]; blood, 10 mg/kg, ENK6 10 mg/kg s.c. + ENa7 veh, n = 2-3, read-out: Blood concentration): 839 ng/mL
concentration at 15 min ([1]; blood, 30 mg/kg, ENK6 30 mg/kg s.c. + ENa7 veh, n = 2, read-out: Blood concentration): 1890 ng/mL
concentration at 15 min ([1]; brain, 10 mg/kg, ENK6 10 mg/kg s.c. + ENa7 veh, n = 2-3, read-out: Brain concentration): 1420 ng/g
concentration at 15 min ([1]; brain, 30 mg/kg, ENK6 30 mg/kg s.c. + ENa7 veh, n = 2, read-out: Brain concentration): 4500 ng/g
Blood concentration [1, 2]: 635 ng/mL
Brain concentration [1, 2]: 1254 ng/g
Blood concentration [1, 3]: 732 ng/mL
Brain concentration [1, 3]: 1504 ng/g
Blood concentration [1, 4]: 1542 ng/mL
Brain concentration [1, 4]: 3343 ng/g
Blood concentration [1, 5]: 1481 ng/mL
Brain concentration [1, 5]: 2484 ng/g
SMILES: COc1ccc(-n2nnnc2C(F)(F)F)cc1CN[C@H]1CCCN[C@H]1c1ccccc1.Cl.Cl [ENK6, [2-Methoxy-5-(5-trifluoromethyl-tetrazol-1-yl)-benzyl]-([2S,3S]-2-phenyl-piperidin-3-yl)-amine dihydrochloride]
ED50 (rats; Rattus norvegicus, po, compound alone, 0.1-3.0 mg/kg p.o. as printed, 1 hour post dose, range in brackets as printed, read-out: ED50, reversal of the FCA induced hypersensitivity): 0.4 mg/kg
reversal of the FCA induced hypersensitivity (rats; compound alone, 0.1-3.0 mg/kg, 1 hour post dose): dose related reversal
ED20, reversal of the FCA induced hypersensitivity (rats; compound alone, p.o. as printed, from the dose response curve): 0.08 mg/kg
ED20, reversal of the FCA induced hypersensitivity (rats; compound alone, s.c. (summary of results)): approx 0.08 mg/kg
effect on the FCA induced hypersensitivity (rats; each compound alone at its ED20 dose (ENa7 0.1 mg/kg p.o.; ENK6 0.08 mg/kg s.c.)): no significant effect
effect on seizure threshold (Male CD rats; ENK6 alone, 10 mg/kg s.c., 15 minutes before testing (first experiment)): no effect on seizure threshold
effect on seizure threshold (Male CD rats; ENK6 alone, 30 mg/kg i.p., 60 minutes before the test): no effect on seizure threshold
effect on seizure threshold (Male CD rats; ENK6 alone, 30 mg/kg s.c., 15 minutes before testing): no effect on seizure threshold

change of blood or brain concentration of the sodium channel blocker in the presence of ENK6 [1]: No increase
SMILES: Cl.NC(=O)[C@@H]1CC[C@H](c2ccc(OCc3ccccc3F)cc2)N1 [ENa9, (5R)-5-(4-{[(2-fluorophenyl)methyl]oxy}phenyl)-L-prolinamide hydrochloride]
increase in CC50 (mA) (Male CD rats; [6]): 133%
increase in CC50 (mA) (Male CD rats; [7]): 323%
effect on seizure threshold (Male CD rats; [8]): inactive
effect on seizure threshold (Male CD rats; [9]): small, but significant increase in seizure threshold

concentration at 30 min ([1]; blood, 1 mg/kg, ENK6 veh + ENa13 1 mg/kg s.c., n = 2, read-out: Blood concentration): 499 ng/mL
concentration at 30 min ([1]; blood, 3 mg/kg, ENK6 veh + ENa13 3 mg/kg s.c., n = 2, read-out: Blood concentration): 1820 ng/mL
concentration at 30 min ([1]; brain, 1 mg/kg, ENK6 veh + ENa13 1 mg/kg s.c., n = 2, read-out: Brain concentration): 478 ng/g
concentration at 30 min ([1]; brain, 3 mg/kg, ENK6 veh + ENa13 3 mg/kg s.c., n = 2, read-out: Brain concentration): 1820 ng/g
change of blood or brain concentration of the sodium channel blocker in the presence of ENK6 [1]: No increase
Blood concentration [1, 10]: 416 ng/mL
Brain concentration [1, 10]: 508 ng/g
Blood concentration [1, 11]: 1160 ng/mL
Brain concentration [1, 11]: 1235 ng/g
SMILES: CN1CC[C@]2(CC[C@H](c3ccc(OCc4ccccc4F)cc3)N2)C1=O.Cl [ENa13, (2R,5R)-2-(4-{[(2-Fluorophenyl)methyl]oxy}phenyl)-7-methyl-1,7-diazaspiro[4.4]nonan-6-one hydrochloride]
increase in CC50 (mA) (Male CD rats; [6]): 118%
increase in CC50 (mA) (Male CD rats; [7]): 129%
effect on seizure threshold (Male CD rats; [8]): inactive
effect on seizure threshold (Male CD rats; [9]): robust and significant increase in seizure threshold

SMILES: Nc1nc(N)c(-c2cccc(Cl)c2Cl)c(CF)n1 [ENa15, R(−)-2,4-diamino-5-(2,3-dichlorophenyl)-6-fluoromethyl pyrimidine methanesulphonate]
increase in CC50 (mA) (Male CD rats; sodium channel blocker 0.3 mg/kg p.o. in the presence of ENK6 30 mg/kg s.c.): 176%
increase in CC50 (mA) (Male CD rats; sodium channel blocker 1 mg/kg p.o. in the presence of ENK6 30 mg/kg s.c.): 51%
effect on seizure threshold (Male CD rats; sodium channel blocker alone, 0.3 mg/kg p.o., 60 minutes before the test): no increase in seizure threshold
increase in seizure threshold (Male CD rats; sodium channel blocker alone, 1 mg/kg p.o., 60 minutes before the test): 292%
